In ChEMBL document CHEMBL5528016, “Design, synthesis and evaluation of novel deferasirox derivatives with high antifungal potency in vitro and in vivo” (Eur J Med Chem, 2024):
In brackets after ≈: the same amount, converted by molar mass. Activity calls are given as the source filed them. The rule behind the calls is not given here.

Key:
[1] = system: Candida albicans; test: Antifungal activity against Candida albicans SC5314 assessed as reduction in fungal growth incubated for 72 hrs by broth microdilution method; format: functional
[2] = system: Cryptococcus neoformans; test: Potency index, ratio of deferasirox MIC to test compound for antifungal activity against Cryptococcus neoformans H99 incubated for 72 hrs by broth microdilution method; format: functional
[3] = system: Cryptococcus neoformans; test: Antifungal activity against Cryptococcus neoformans H99 assessed as reduction in fungal growth incubated for 72 hrs by broth microdilution method; format: functional
[4] = system: Pichia kudriavzevii; test: Antifungal activity against Pichia kudriavzevii 4946 assessed as reduction in fungal growth incubated for 72 hrs by broth microdilution method; format: functional
[5] = system: Nakaseomyces glabratus; test: Antifungal activity against Candida glabrata 537 assessed as reduction in fungal growth incubated for 72 hrs by broth microdilution method; format: functional
[6] = system: Candida tropicalis; test: Antifungal activity against Candida tropicalis 2718 assessed as reduction in fungal growth incubated for 72 hrs by broth microdilution method; format: functional
[7] = system: Candida parapsilosis; test: Antifungal activity against Candida parapsilosis ATCC 22019 assessed as reduction in fungal growth incubated for 72 hrs by broth microdilution method; format: functional; conditions: Lodderomyces parapsilosis
[8] = system: [Candida] auris; test: Antifungal activity against Candida auris D12 assessed as reduction in fungal growth incubated for 72 hrs by broth microdilution method; format: functional; conditions: Candidozyma auris
[9] = Antifungal activity against Cryptococcus gattii VGI SCZ20024 assessed as reduction in fungal growth incubated for 72 hrs by broth microdilution method; format: functional
[10] = Antifungal activity against Cryptococcus gattii VGI E566 assessed as reduction in fungal growth incubated for 72 hrs by broth microdilution method; format: functional
[11] = system: Cryptococcus neoformans; test: Antifungal activity against Cryptococcus neoformans 444 assessed as reduction in fungal growth incubated for 72 hrs by broth microdilution method; format: functional
[12] = Antifungal activity against Cryptococcus gattii VGI SCZ20031 assessed as reduction in fungal growth incubated for 72 hrs by broth microdilution method; format: functional
[13] = system: Nakaseomyces glabratus; test: Antifungal activity against Candida glabrata Y10-15 assessed as reduction in fungal growth incubated for 48 hrs by broth microdilution method; format: functional
[14] = system: Nakaseomyces glabratus; test: Antifungal activity against Candida glabrata YC1-34 assessed as reduction in fungal growth incubated for 48 hrs by broth microdilution method; format: functional
[15] = Antifungal activity against Cryptococcus gattii VGI WM178 assessed as reduction in fungal growth incubated for 72 hrs by broth microdilution method; format: functional
[16] = system: Nakaseomyces glabratus; test: Antifungal activity against Candida glabrata 203 assessed as reduction in fungal growth incubated for 48 hrs by broth microdilution method; format: functional
[17] = system: Cryptococcus neoformans; test: Antifungal activity against Cryptococcus neoformans HN1 assessed as reduction in fungal growth incubated for 72 hrs by broth microdilution method; format: functional
[18] = system: Cryptococcus neoformans; test: Antifungal activity against Cryptococcus neoformans 20 assessed as reduction in fungal growth incubated for 72 hrs by broth microdilution method; format: functional
[19] = system: Cryptococcus neoformans; test: Antifungal activity against Cryptococcus neoformans BJ3 assessed as reduction in fungal growth incubated for 72 hrs by broth microdilution method; format: functional
[20] = system: Erythrocyte; test: Hemolytic activity in rabbit Red blood cell at 64 ug/ml; format: toxicity, cell-based, Oryctolagus cuniculus; conditions: dose 64 µg/ml
[21] = Antifungal activity against Cryptococcus gattii VGI WM179 assessed as reduction in fungal growth incubated for 72 hrs by broth microdilution method; format: functional
[22] = system: Cryptococcus neoformans; test: Antifungal activity against Cryptococcus neoformans HN15 assessed as reduction in fungal growth incubated for 72 hrs by broth microdilution method; format: functional
[23] = system: Nakaseomyces glabratus; test: Antifungal activity against Candida glabrata 337 assessed as reduction in fungal growth incubated for 48 hrs by broth microdilution method; format: functional
[24] = system: HUVEC; test: Cytotoxicity against HUVEC cells assessed as reduction in cell viability at 0.25 to 64 ug/ml incubated for 2 hrs by CCK-8 assay; format: toxicity, cell-based; conditions: human, dose 0.25-64 µg/ml
[25] = system: Cryptococcus neoformans; test: Antifungal activity against Cryptococcus neoformans assessed as increase in MIC incubated for 72 hrs in presence of FeCl3 by broth microdilution method; format: functional, organism-based
[26] = Toxicity against ICR mouse assessed as enlargement of cytoplasm in hepatocytes at 50 mg/kg, ip administered at 24 hrs interval for 7 days by hematoxylin and eosin staining based analysis; format: organism-based; conditions: in vivo
[27] = Toxicity against ICR mouse assessed as hypertrophy at 50 mg/kg, ip administered at 24 hrs interval for 7 days by hematoxylin and eosin staining based analysis; format: organism-based; conditions: in vivo, 168 h, time 7 day
[28] = Toxicity against ICR mouse assessed as reduction in lipid droplet at 20 mg/kg, ip administered at 24 hrs interval for 7 days by hematoxylin and eosin staining based analysis; format: organism-based; conditions: in vivo, 168 h, time 7 day
[29] = system: Cryptococcus neoformans; test: Antifungal activity against Cryptococcus neoformans H99 infected in C57BL/6J mouse assessed as reduction in fungal burden in brain at 10 mg/kg, ip; format: functional, organism-based
[30] = system: Caco-2; test: Cytotoxicity against human Caco-2 cells assessed as reduction in cell viability at 0.25 to 64 ug/ml incubated for 2 hrs by CCK-8 assay; format: toxicity, cell-based; conditions: caco-2, 2 h, dose 0.25-64 µg/ml
[31] = Metabolic stability in mouse liver microsomes assessed as half life; format: ADME, Microsome
[32] = Toxicity against ICR mouse assessed as enlargement of nucleus in hepatocytes at 50 mg/kg, ip administered at 24 hrs interval for 7 days by hematoxylin and eosin staining based analysis; format: organism-based; conditions: in vivo, 168 h, time 7 day
[33] = Metabolic stability in mouse liver microsomes assessed as elimination rate constant; format: ADME, Microsome
[34] = system: Cryptococcus neoformans; test: Antifungal activity against Cryptococcus neoformans H99 infected in C57BL/6J mouse assessed as reduction in fungal burden in lung at 10 mg/kg, ip; format: functional, organism-based
[35] = Toxicity against ICR mouse assessed as reduction in lipid droplet at 50 mg/kg, ip administered at 24 hrs interval for 7 days by hematoxylin and eosin staining based analysis; format: organism-based; conditions: in vivo, 168 h, time 7 day
[36] = Metabolic stability in mouse liver microsomes assessed as intrinsic clearance; format: ADME, Microsome; conditions: read-out: CLH
[37] = system: Cryptococcus neoformans; test: Antifungal activity against Cryptococcus neoformans H99 infected in C57BL/6J mouse assessed as reduction in fungal burden in lung at 2 mg/kg, ip; format: functional, organism-based
[38] = system: Cryptococcus neoformans; test: Antifungal activity against Cryptococcus neoformans H99 infected in C57BL/6J mouse assessed as reduction in fungal burden in brain at 2 mg/kg, ip; format: functional, organism-based
[39] = Nephrotoxicity in ICR mouse at 50 mg/kg, ip administered at 24 hrs interval for 7 days by hematoxylin and eosin staining based analysis; format: toxicity, organism-based; conditions: in vivo, 168 h, time 7 day
[40] = Toxicity against ICR mouse assessed as increase in monocytes at 50 mg/kg, ip administered at 24 hrs interval for 7 days by hematoxylin and eosin staining based analysis; format: organism-based; conditions: in vivo, 168 h, time 7 day
[41] = Toxicity against ICR mouse assessed as inflammatory cell infiltration at 50 mg/kg, ip administered at 24 hrs interval for 7 days by hematoxylin and eosin staining based analysis; format: organism-based; conditions: in vivo, 168 h, time 7 day
[42] = Toxicity against ICR mouse assessed as glomerular enlargement at 50 mg/kg, ip administered at 24 hrs interval for 7 days by hematoxylin and eosin staining based analysis; format: organism-based; conditions: in vivo, 168 h, time 7 day
[43] = Hemolytic activity in rabbit Red blood cell at 64 ug/ml relative to control; format: toxicity, cell-based, Oryctolagus cuniculus, Erythrocyte; conditions: red blood cells, at 64 µg/mL, read-out: Activity
[44] = Hemolytic activity in rabbit Red blood cell at 2 ug/ml relative to control; format: toxicity, cell-based, Oryctolagus cuniculus, Erythrocyte; conditions: red blood cells, at 2 µg/mL, read-out: Activity

Compound	MIC [1]	MIC [3]	MIC [4]	MIC [5]	MIC [6]	MIC [7]	MIC [8]	MIC [9]	MIC [10]	MIC [11]	MIC [12]	MIC [13]	MIC [14]	MIC [15]	MIC [16]	MIC [17]	MIC [19]	MIC [21]	MIC [22]	MIC [23]	other results
COC(=O)CCNC(=O)c1ccc(-n2nc(-c3ccccc3O)nc2-c2ccccc2O)cc1	> 64 µg/mL	0.5 µg/mL (≈ 1.09 µM)	4 µg/mL (≈ 8.72 µM)	< 0.125 µg/mL	0.125 µg/mL (≈ 0.273 µM)	> 64 µg/mL	> 64 µg/mL	–	–	–	–	–	–	–	–	–	–	–	–	–	Ratio [2]: 4
CC(C)(O)CCNC(=O)c1ccc(-n2nc(-c3ccccc3O)nc2-c2ccccc2O)cc1	16 µg/mL (≈ 34.9 µM)	1 µg/mL (≈ 2.18 µM)	4 µg/mL (≈ 8.72 µM)	< 0.125 µg/mL	4 µg/mL (≈ 8.72 µM)	> 64 µg/mL	> 64 µg/mL	–	–	–	–	–	–	–	–	–	–	–	–	–	Ratio [2]: 2
OC(Cn1cncn1)(Cn1cncn1)c1ccc(F)cc1F [FLUCONAZOLE]	0.125 µg/mL (≈ 0.408 µM)	–	16 µg/mL (≈ 52.2 µM)	0.25 µg/mL (≈ 0.816 µM)	< 0.125 µg/mL	1 µg/mL (≈ 3.27 µM)	> 64 µg/mL	4 µg/mL (≈ 13.1 µM)	32 µg/mL (≈ 104 µM)	16 µg/mL (≈ 52.2 µM)	4 µg/mL (≈ 13.1 µM)	4 µg/mL (≈ 13.1 µM)	2 µg/mL (≈ 6.53 µM)	16 µg/mL (≈ 52.2 µM)	> 64 µg/mL	2 µg/mL (≈ 6.53 µM)	8 µg/mL (≈ 26.1 µM)	16 µg/mL (≈ 52.2 µM)	4 µg/mL (≈ 13.1 µM)	2 µg/mL (≈ 6.53 µM)	MIC [18]: 8 µg/mL (≈ 26.1 µM); Activity [20]: Non-Toxic
O=C(NC1CCS(=O)(=O)C1)c1ccc(-n2nc(-c3ccccc3O)nc2-c2ccccc2O)cc1 (stereo not drawn)	4 µg/mL (≈ 8.15 µM)	0.25 µg/mL (≈ 0.51 µM)	0.25 µg/mL (≈ 0.51 µM)	< 0.125 µg/mL	2 µg/mL (≈ 4.08 µM)	64 µg/mL (≈ 130 µM)	> 64 µg/mL	0.25 µg/mL (≈ 0.51 µM)	0.5 µg/mL (≈ 1.02 µM)	1 µg/mL (≈ 2.04 µM)	< 0.125 µg/mL	< 0.125 µg/mL	< 0.125 µg/mL	0.25 µg/mL (≈ 0.51 µM)	< 0.125 µg/mL	< 0.125 µg/mL	0.5 µg/mL (≈ 1.02 µM)	0.5 µg/mL (≈ 1.02 µM)	< 0.125 µg/mL	< 0.125 µg/mL	Activity [24]: Non-Toxic; Activity [25]: inactive; Activity [26]: Toxic; Activity [27]: Toxic; Activity [28]: Toxic; Activity [29]: Active; MIC [18]: < 0.125 µg/mL; Activity [30]: Non-Toxic; half-life [31]: 2.13 h; Activity [32]: Toxic; k el [33]: 8.33e-05 s⁻¹; Activity [20]: Non-Toxic; Activity [34]: Active; Activity [35]: Toxic; microsomal CLint [36]: 10.9 µL/min/mg; Activity [37]: inactive; Activity [38]: inactive; Activity [39]: Toxic
O=C(O)c1ccc(-n2nc(-c3ccccc3O)nc2-c2ccccc2O)cc1 [DEFERASIROX]	> 64 µg/mL	2 µg/mL (≈ 5.36 µM)	2 µg/mL (≈ 5.36 µM)	0.5 µg/mL (≈ 1.34 µM)	8 µg/mL (≈ 21.4 µM)	32 µg/mL (≈ 85.7 µM)	> 64 µg/mL	2 µg/mL (≈ 5.36 µM)	8 µg/mL (≈ 21.4 µM)	8 µg/mL (≈ 21.4 µM)	2 µg/mL (≈ 5.36 µM)	0.5 µg/mL (≈ 1.34 µM)	0.25 µg/mL (≈ 0.67 µM)	8 µg/mL (≈ 21.4 µM)	2 µg/mL (≈ 5.36 µM)	4 µg/mL (≈ 10.7 µM)	8 µg/mL (≈ 21.4 µM)	8 µg/mL (≈ 21.4 µM)	2 µg/mL (≈ 5.36 µM)	0.5 µg/mL (≈ 1.34 µM)	Activity [26]: Toxic; Activity [27]: Toxic; Activity [40]: Toxic; Activity [41]: Toxic; MIC [18]: 2 µg/mL (≈ 5.36 µM); half-life [31]: 3.9 h; Activity [32]: Toxic; k el [33]: 5e-05 s⁻¹; Activity [35]: Toxic; microsomal CLint [36]: 5.94 µL/min/mg; Activity [42]: Toxic
C[C@@H]1[C@H](O)[C@@H](C)/C=C/C=C/C=C/C=C/C=C/C=C/C=C/[C@H](O[C@@H]2O[C@H](C)[C@@H](O)[C@H](N)[C@@H]2O)C[C@@H]2O[C@](O)(C[C@@H](O)C[C@@H](O)[C@H](O)CC[C@@H](O)C[C@@H](O)CC(=O)O[C@H]1C)C[C@H](O)[C@H]2C(=O)O [AMPHOTERICIN B]	1 µg/mL (≈ 1.08 µM)	–	–	< 0.125 µg/mL	1 µg/mL (≈ 1.08 µM)	0.5 µg/mL (≈ 0.541 µM)	8 µg/mL (≈ 8.66 µM)	1 µg/mL (≈ 1.08 µM)	4 µg/mL (≈ 4.33 µM)	2 µg/mL (≈ 2.16 µM)	1 µg/mL (≈ 1.08 µM)	2 µg/mL (≈ 2.16 µM)	1 µg/mL (≈ 1.08 µM)	1 µg/mL (≈ 1.08 µM)	16 µg/mL (≈ 17.3 µM)	1 µg/mL (≈ 1.08 µM)	2 µg/mL (≈ 2.16 µM)	1 µg/mL (≈ 1.08 µM)	8 µg/mL (≈ 8.66 µM)	0.5 µg/mL (≈ 0.541 µM)	hemolysis at 64 ug/ml [43]: 100%; Activity [24]: Non-Toxic; hemolysis at 2 ug/ml [44]: > 10%; Activity [30]: Non-Toxic
